The values below come from US11661437B2, “Steroid derivative regulators, method for preparing the same, and uses thereof” (priority 2018, dated 2023).

Like-named read-outs stand apart in the source and are kept apart here.

Series [1] deals with ICR mice. The experiment in a line: In vivo pharmacodynamic test in the forced swimming model in mice. To be noted: for immobility time during the latter four minutes compared with that of the model group: 10 mg/kg p.o.; for Mean (immobility, %) / Mean (immobility, s): 10 mpk p.o.; for Mean (immobility, %): floating time percentage = 100*floating time/240 s; for Mean (immobility, s): latter four minutes of 6 min swim. As for the experimental part:
The antidepressant effect of the compound was evaluated by the forced swimming model in mice.
Male ICR mice (25-35 g) were adapted in the test environment for 3 days before the forced swimming test.
According to the test design, the mice were randomly grouped on the day before the test according to body weight, with 12 mice in each group. Before the test, the compounds of each example were administrated intragastrically according to the Tmax thereof in the brain in mice pharmacokinetic test as follows:
1) Model group (0.5% CMC-Na+1% Tween 80 solution, p.o., 10 mL/kg);
2) Compounds of Example 2, Example 5, Example 7, Example 18, Example 23, Example 26 and Example 50 (10 mg/kg, p.o., 10 mL/kg).
When being administrated, the compounds of each example were suspended in 0.5% CMC-Na-1% Tween 80 solution to the desired concentration.
0.5-1 hour after administration, ICR mice were placed in a forced swimming device (transparent glass drum (water depth 18 cm, water temperature 25-26° C.), one mouse per tank) and forced to swim for 6 minutes. The forced swimming device recorded the floating time of the ICR mice during the entire 6 minutes, and the data of the latter four minutes were used for data analysis. The mice were taken out immediately after the swimming test, wiped dry and put back in their original cages.
Note: The criterion for determining the immobility time is that the mouse stops struggling in water and floats, and there are only slight limb movements to keep the head floating on the water.
3.4 Data Analysis Floating time percentage=100*floating time/240 s.

Series [2] is described as follows: Pharmacokinetic assay in Balb/c mice (plasma and brain tissue). In kind it is in vivo. To be noted: male, mouse, po. As for the experimental part:
Balb/c mice were used as test animals. The pharmacokinetic behavior in mice (plasma and brain tissue) of the compounds of Example 2, Example 5, Example 7, Example 12, Example 18, Example 23, Example 26, Example 38, Example 41, Example 50, Example 51 and Example 66 orally administrated at a dose of 5 mg/kg was studied.
Each group had 24 male Balb/c mice. After an overnight fast, Balb/c mice were administrated p.o. with the test compound at an administration dose of 5 mg/kg and an administration volume of 10 mL/kg.
0.2 ml of blood was taken from the heart before administration and at 0, 0.5, 1, 2, 4, 6, 8 and 24 hours after administration. The samples were stored in EDTA-K2 tubes, and centrifuged for 6 minutes at 4° C., 6000 rpm to separate the plasma. The plasma samples were stored at −80° C. The mice were sacrificed with CO2, and the whole brain tissue was taken out, weighed, placed in a 2 mL centrifuge tube and stored at −80° C.
1) 160 μL of acetonitrile was added to 40 μL of the plasma sample for precipitation, and then the mixture was centrifuged for 5-20 minutes at 3500×g.
2) 90 μL of acetonitrile containing the internal standard (100 ng/mL) was added to 30 μL of the plasma and brain homogenate samples for precipitation, and then the mixture was centrifuged for 8 minutes at 13000 rpm.
3) 70 μL of the treated supernatant was taken and added to 70 μL of water, and mixed by vortex for 10 minutes. 20 μL of the mixture was taken to analyze the concentration of the test compound by LC/MS/MS. LC/MS/MS analysis instrument: AB Sciex API 4000 Qtrap.
2.6 Liquid Chromatography Analysis • Liquid chromatography condition: Shimadzu LC-20AD pump. • Chromatographic column: Agilent ZORBAX XDB-C18 (50×2.1 mm, 3.5 μm); Mobile phase: Eluent A was 0.1% formic acid in water, and Eluent B was acetonitrile. • Flow rate: 0.4 mL/min • Elution time: 0-4.0 minutes the eluent is as follows:
The main parameters of pharmacokinetics were calculated by WinNonlin 6.1.

The mark [3] stands for this setting: Balb/c, in vivo, 5 mg/kg, Area under curve AUC0-t.
Setting [4] is: Balb/c, in vivo, 5 mg/kg, Half-life t1/2.
The mark [5] stands for this setting: Balb/c, in vivo, 5 mg/kg, Mean residence time MRT.
Setting [6] is: Balb/c, in vivo, 5 mg/kg, Peak time tmax.
Setting [7] is: Balb/c, in vivo, 5 mg/kg, Plasma concentration Cmax.

As for `C[C@@]1(O)CC[C@@]2(F)[C@H](CC[C@H]3[C@@H]4CC[C@H](C(=O)Cn5cc(C#N)cn5)[C@@]4(C)CC[C@@H]32)C1` [Example 2, 1-(2-((3R,5R,8S,9S,10R,13S,14S,17S)-10-Fluoro-3-hydroxy-3,13-dimethylhexadecahydro-1H-cyclopenta[a]phenanthren-17-yl)-2-oxoethyl)-1H-pyrazole-4-carbonitrile], the “immobility time during the latter four minutes compared with that of the model group” value in series [1] is recorded as “significantly different”. The “Mean (immobility, %)” value in series [1] was found to be 36.39%. The “Mean (immobility, s)” value in series [1] is 87.34 s. For the same compound, the AUC(0-t) in series [2] (Balb/c, brain, 5 mg/kg, Balb/c mice, 5 mg/kg p.o., brain tissue, read-out: Area under curve AUC0-t) is 1770 ng·h/mL; in series [2] (Balb/c, plasma, 5 mg/kg, Balb/c mice, 5 mg/kg p.o., plasma, read-out: Area under curve AUC0-t), 2660 ng·h/mL. For the same compound, the AUC(0-inf) in series [2] (Balb/c, brain, 5 mg/kg, Balb/c mice, 5 mg/kg p.o., brain tissue, read-out: Area under curve AUC0-∞) worked out at 1790 ng·h/mL; in series [2] (Balb/c, plasma, 5 mg/kg, Balb/c mice, 5 mg/kg p.o., plasma, read-out: Area under curve AUC0-∞) it was 2710 ng·h/mL. Moreover, the half-life in series [2] (Balb/c, brain, 5 mg/kg, Balb/c mice, 5 mg/kg p.o., brain tissue, read-out: Half-life t1/2 (converted)) was 1.49 h; in series [2] (Balb/c, plasma, 5 mg/kg, Balb/c mice, 5 mg/kg p.o., plasma, read-out: Half-life t1/2 (converted)), 1.49 h. Besides, the MRT (commonly the average time that molecules of a dose stay in the body) was 2.26 h in series [2] (Balb/c, brain, 5 mg/kg, Balb/c mice, 5 mg/kg p.o., brain tissue, read-out: Mean residence time MRT) and 2.49 h in series [2] (Balb/c, plasma, 5 mg/kg, Balb/c mice, 5 mg/kg p.o., plasma, read-out: Mean residence time MRT). Also, the Cmax in series [2] (Balb/c, brain, 5 mg/kg, Balb/c mice, 5 mg/kg p.o., brain tissue, read-out: Plasma concentration Cmax) was found to be 655 ng/mL; in series [2] (Balb/c, plasma, 5 mg/kg, Balb/c mice, 5 mg/kg p.o., plasma, read-out: Plasma concentration Cmax), 846 ng/mL. Also, the Tmax (commonly the time from dosing to the highest level) was found to be 1 h in series [2] (Balb/c mice, 5 mg/kg p.o., brain tissue, read-out: Peak time tmax) and 1 h in series [2] (Balb/c mice, 5 mg/kg p.o., plasma, read-out: Peak time tmax).
In the case of `C[C@@]1(O)CC[C@@]2(F)[C@H](CC[C@H]3[C@@H]4CC[C@H](C(=O)Cn5ccc(C(F)(F)F)n5)[C@@]4(C)CC[C@@H]32)C1` [Example 5, 1-((3R,5R,8S,9S,10R,13S,14S,17S)-10-Fluoro-3-hydroxy-3,13-dimethylhexadecahydro-1H-cyclopenta[a]phenanthren-17-yl)-2-(3-(trifluoromethyl)-1H-pyrazol-1-yl)ethan-1-one], in series [1], the “immobility time during the latter four minutes compared with that of the model group” value was “very significantly different”; the “Mean (immobility, %)” value is on record as 27.11%; the “Mean (immobility, s)” value is given as 65.07 s. Moreover, in series [2] (Balb/c, in vivo, 5 mg/kg), the “Area under curve AUC0-t” value came out at 470.9 ng·h/mL, the “Area under curve AUC0-∞” value was 485.5 ng·h/mL, the “Half-life t1/2” value worked out at 0.94 h and the “Mean residence time MRT” value is given as 1.74 h. Besides, in series [2] (Balb/c, in vivo, 5 mg/kg), the “Plasma concentration Cmax” value came out at 233.7 ng/mL. The same compound showed an AUC(0-t) in series [2] (setting [3]) of 515 ng·h/mL. Moreover, in series [2] (Balb/c, in vivo, 5 mg/kg, Area under curve AUC0-∞), the AUC(0-inf) worked out at 524 ng·h/mL. Further, the half-life in series [2] (setting [4]) was 1.16 h. The MRT in series [2] (setting [5]) amounted to 1.94 h. Besides, the Tmax in series [2] (setting [6]) turned out to be 0.5 h. The Cmax in series [2] (setting [7]) is 242 ng/mL.
`C[C@@]1(O)CC[C@@]2(F)[C@H](CC[C@H]3[C@@H]4CC[C@H](C(=O)CNc5ccc(F)cc5)[C@@]4(C)CC[C@@H]32)C1` [Example 23, 1-((3R,5R,8S,9S,10R,13S,14S,17S)-10-Fluoro-3-hydroxy-3,13-dimethylhexadecahydro-1H-cyclopenta[a]phenanthren-17-yl)-2-((4-fluorophenyl)amino)ethan-1-one]: in series [1], the “immobility time during the latter four minutes compared with that of the model group” value is “very significantly different”; the “Mean (immobility, %)” value came to 28.55%; the “Mean (immobility, s)” value turned out to be 68.51 s. In series [2] (Balb/c, in vivo, 5 mg/kg), the “Area under curve AUC0-t” value amounted to 1067.1 ng·h/mL, the “Half-life t1/2” value was 1.36 h, the “Mean residence time MRT” value worked out at 2.42 h and the “Plasma concentration Cmax” value was found to be 558.0 ng/mL. In series [2] (setting [3]), this compound registered an AUC(0-t) of 545 ng·h/mL. Further, in series [2] (setting [4]), the half-life is 1.08 h. Besides, the MRT in series [2] (setting [5]) came out at 1.78 h. Also, the time of peak concentration (Tmax) in series [2] (setting [6]) was 0.5 h. The Cmax in series [2] (setting [7]) stood at 408 ng/mL.
